Assay results: paper PMC8634709, “Neuroprotective Potential of Tamarillo (Cyphomandra betacea) Epicarp Extracts Obtained by Sustainable Extraction Process” (Frontiers in Nutrition, 2021)
Marks after values point to notes of the source that are not given here.

Tests used:
Conditions in all cases: mean ± SD (n = 3)
[1] = ABTS radical scavenging assay
Experimental: ABTS^·+ radical scavenging assay was performed according to Re et al. ([32]), with modifications. TE at six different concentrations of each sample [from 2.9 to 29 μg/ml EtOH/H2O (1:1, v/v)] was used, giving a linear response between 20 and 80% of the control absorbance. All the measurements were performed in triplicate. Equation (3) represents the percentage of ABTS^·+ inhibition due to TE extracts and Trolox compared with the ABTS control.
(3) %Inh=AABTS control−(Asample−Asample blank)/AABTS control x 100
where A ABTScontrol is absorbance of radical at t = 0 min; Asample, represents the mean of absorbance readings of TE samples, and ASampleblank is the absorbance of the sample without ABTS. The capacity of free radical scavenging was expressed by IC50 value, and the results represent the mean inhibitory concentration (in μg/ml) of TE against ABTS^·+ radical.

[2] = ROS scavenging capacity (ORAC method)
Experimental: In this case, a concentration range of extract from 0.62 to 6.2 μg/ml in EtOH/H2O (1:9, v/v) was measured. […] The measurements were carried out in triplicate.
(4) %Inh=AUCControl−AUCsample/AUCcontrol x 100
AUC was calculated by means of Equation (5).
where f0 and fi are fluorescence at t = 0 and every 5 min, respectively.

[3] = RNS scavenging capacity (NO radical scavenging, Griess reaction)
Experimental: Reactive nitrogen species scavenging capacity was measured following the NO^· radical scavenging assay according to Ho et al. ([34]) and based on the Griess reaction. […] Each measurement was carried out in triplicate, and ascorbic acid and rosemary extract were used as chemical and natural positive controls, respectively. The NO scavenging capacity of the extract was expressed through inhibition % calculated as described in Equation (3).

Row | Structure (SMILES) | ABTS IC50 [1] | ROS (ORAC) IC50 [2] | RNS IC50 [3]
1 | Cc1c(C)c2c(c(C)c1O)CCC(C)(C(=O)O)O2 (racemic) [Trolox, (±)-6-hydroxy-2,5,7,8-tetramethylchromane-2-carboxylic acid] | 2.500 ± 0.02^a μg/mL extract | 1.290 ± 0.09^a μg/ml | 
2 | O=C1O[C@H]([C@@H](O)CO)C(O)=C1O [Ascorbic acid] | 25.000 ± 0.30^f μg/mL extract |  | 1100.901 ± 3.96^c μg/ml
